Experimental data as given in the NIST ThermoML archive (doi:10.1016/j.jct.2010.01.003).

Details: Liquid; for speed of sound: Single path-length method; for mass density: Vibrating tube method

CCCCCCCCCCCCCCCC [hexadecane]
Details	mass density [kg/m3]	speed of sound [m/s]
290.65 K, 83 kPa	775	1367.2
291.15 K, 83 kPa	774.7	1365.3
291.65 K, 83 kPa	774.4	1363.4
292.15 K, 83 kPa	774	1361.5
292.65 K, 83 kPa	773.6	1359.6
293.15 K, 83 kPa	773.3	1357.7
298.15 K, 83 kPa	769.8	1338.8
303.15 K, 83 kPa	766.4	1320.2
308.15 K, 83 kPa	762.9	1301.7
310 K, 1110 kPa	761.74	–
310 K, 2710 kPa	762.85	–
310 K, 5870 kPa	765.01	–
310 K, 10770 kPa	768.25	–
310 K, 15700 kPa	771.38	–
310 K, 20650 kPa	774.41	–
310 K, 25600 kPa	777.3	–
310 K, 34700 kPa	782.46	–
310 K, 36730 kPa	783.55	–
313.15 K, 83 kPa	759.4	1283.4
318.15 K, 83 kPa	756	1265.3
323.15 K, 83 kPa	752.5	1247.4
328.15 K, 83 kPa	749.1	1229.8
330 K, 1130 kPa	748.39	–
330 K, 2730 kPa	749.66	–
330 K, 5890 kPa	752.03	–
330 K, 10790 kPa	755.61	–
330 K, 15740 kPa	759.04	–
330 K, 20680 kPa	762.35	–
330 K, 25980 kPa	765.74	–
330 K, 36160 kPa	771.9	–
330 K, 38240 kPa	773.11	–
330 K, 45960 kPa	777.44	–
333.15 K, 83 kPa	745.6	1212.3
338.15 K, 83 kPa	742.2	1194.9
343.15 K, 83 kPa	738.7	1177.9
350 K, 1020 kPa	734.55	–
350 K, 2630 kPa	735.94	–
350 K, 5790 kPa	738.58	–
350 K, 10710 kPa	742.54	–
350 K, 15650 kPa	746.27	–
350 K, 20600 kPa	749.88	–
350 K, 25560 kPa	753.33	–
350 K, 36140 kPa	760.24	–
350 K, 40130 kPa	762.7	–
370 K, 1030 kPa	720.83	–
370 K, 2620 kPa	722.35	–
370 K, 5780 kPa	725.3	–
370 K, 10710 kPa	729.65	–
370 K, 15660 kPa	733.76	–
370 K, 20610 kPa	737.69	–
370 K, 25580 kPa	741.44	–
370 K, 34010 kPa	747.41	–
370 K, 41340 kPa	752.26	–
390 K, 1040 kPa	706.5	–
390 K, 2630 kPa	708.23	–
390 K, 5790 kPa	711.5	–
390 K, 10690 kPa	716.31	–
390 K, 15650 kPa	720.83	–
390 K, 20600 kPa	725.12	–
390 K, 25550 kPa	729.18	–
390 K, 35160 kPa	736.52	–
390 K, 39900 kPa	739.91	–
390 K, 44320 kPa	742.94	–
390 K, 46900 kPa	744.61	–
410 K, 1080 kPa	692.52	–
410 K, 2680 kPa	694.47	–
410 K, 5830 kPa	698.12	–
410 K, 10750 kPa	703.47	–
410 K, 15700 kPa	708.47	–
410 K, 20630 kPa	713.12	–
410 K, 25570 kPa	717.52	–
410 K, 30420 kPa	721.61	–
410 K, 37220 kPa	726.98	–
410 K, 44820 kPa	732.63	–
410 K, 50700 kPa	736.75	–
430 K, 970 kPa	677.73	–
430 K, 2590 kPa	679.9	–
430 K, 5770 kPa	684.04	–
430 K, 10650 kPa	689.93	–
430 K, 15590 kPa	695.44	–
430 K, 20560 kPa	700.57	–
430 K, 25530 kPa	705.37	–
430 K, 30420 kPa	709.84	–
430 K, 39590 kPa	717.56	–
430 K, 44320 kPa	721.28	–
430 K, 48490 kPa	724.39	–
450 K, 960 kPa	662.64	–
450 K, 2560 kPa	665.22	–
450 K, 5750 kPa	669.98	–
450 K, 10620 kPa	676.53	–
450 K, 15590 kPa	682.65	–
450 K, 20560 kPa	688.27	–
450 K, 25530 kPa	693.48	–
450 K, 30800 kPa	698.66	–
450 K, 39150 kPa	706.2	–
450 K, 43400 kPa	709.8	–
450 K, 45310 kPa	711.32	–
470 K, 1070 kPa	648.42	–
470 K, 2660 kPa	651.24	–
470 K, 5770 kPa	656.4	–
470 K, 10730 kPa	663.85	–
470 K, 15690 kPa	670.57	–
470 K, 20640 kPa	676.69	–
470 K, 25530 kPa	682.28	–
470 K, 30470 kPa	687.53	–
470 K, 38870 kPa	695.7	–
470 K, 42790 kPa	699.27	–
470 K, 47790 kPa	703.6	–
